From US8722731B2, “Furanyl compounds and the use thereof” (NovoMedix, LLC, priority 2010, dated 2014)
Like-named read-outs stand apart in the source and are kept apart here.

Tests used:
Hep-G2 = experiment: IC50 cell-based assay, adherent cells, Hep-G2; details: Homo sapiens, HepG2, Liver, hepatocellular carcinoma, 72 hours, read-out: IC50 of Compounds in Adherent Cell Types
Summary of the method: (§1)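 Day 0: plate 20,000 cells per well. Day 1: add compound at a final 1:1000 dilution of DMSO stocks, prepared as a 2-fold series whose top stock was 30 mM, each level in triplicate. After 72 h incubation, add the colorimetric reagent and read A490 2-3 h later.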

Nalm-6 = experiment: IC50 cell-based assay, suspension cells, Nalm-6; details: Homo sapiens, Leukemia, B-ALL, read-out: IC50 of Compounds in Suspension Cell Types
MCF-7 = experiment: IC50 cell-based assay, adherent cells, MCF-7; details: Homo sapiens, MCF7, Breast, ER+, 72 hours, read-out: IC50 of Compounds in Adherent Cell Types
Summary of the method: as §1

RT-4 = experiment: IC50 cell-based assay, adherent cells, RT-4; details: Homo sapiens, Bladder, papilloma, 72 hours, read-out: IC50 of Compounds in Adherent Cell Types
Summary of the method: as §1

HL-60 = experiment: IC50 cell-based assay, suspension cells, HL-60; details: Homo sapiens, Leukemia, AML, read-out: IC50 of Compounds in Suspension Cell Types
[1] = Percent weight change of animals in MDA-MB-468 xenograft study; format: in vivo, Mouse/SCID; details: qd 20 mg/kg days 0 to 7, then qd 10 mg/kg day 8 and thereafter, IP, SCID mice
Method: In one embodiment, the effects of a compound provided herein on tumor growth in a mouse animal model were evaluated. In specific embodiments, the mouse animal model was the MDA-MB-468 xenograft model for breast cancer. Studies were performed to evaluate the effect of a compound provided herein on the growth of MDA-MB-468 breast tumors in mice. The test system that was used is summarized below:
Exemplary Protocol: Ten mice per group were inoculated s.c. on the left flank with 5×10^6 MDA-MB-468 cells. When tumors reached a mean volume of 100 or 200 mm^3, animals began treatment with a compound provided herein (See Table 4). Test article or vehicle were given once daily by IP injection for up to 21 days. Tumors were evaluated every Monday, Wednesday and Friday, body weights and condition were evaluated on a daily basis.
Animal Weight: All animals were weighed […] throughout the study. Group weight change was expressed as a daily group mean weight. Animals that lost greater than 20% of their total starting body weight were euthanized.
Compound 1 was dosed in mice at a dose of, for example, qd 50 mg/kg, for 22 days or more.
Compound 2 was dosed in mice at a dose of, for example, qd 20 mg/kg from day 0 to 7, then qd 10 mg/kg from day 8 and thereafter, for 22 days or more.

FaDu = experiment: IC50 cell-based assay, adherent cells, FaDu; details: Homo sapiens, Pharynx, squamous cell, 72 hours, read-out: IC50 of Compounds in Adherent Cell Types
Summary of the method: as §1

HT-29 = experiment: IC50 cell-based assay, adherent cells, HT-29; details: Homo sapiens, Colorectal, adenocarcinoma, 72 hours, read-out: IC50 of Compounds in Adherent Cell Types
Summary of the method: as §1

1937 = experiment: IC50 cell-based assay, adherent cells, 1937; details: Breast, triple neg, 72 hours, read-out: IC50 of Compounds in Adherent Cell Types
Summary of the method: as §1

A431 = experiment: IC50 cell-based assay, adherent cells, A431; details: Homo sapiens, A-431, Skin, epidermoid carcinoma, 72 hours, read-out: IC50 of Compounds in Adherent Cell Types
Summary of the method: as §1

Kg1a = experiment: IC50 cell-based assay, suspension cells, Kg1a; details: Homo sapiens, KG-1a, Leukemia, AML, read-out: IC50 of Compounds in Suspension Cell Types
MDA-MB-231 = experiment: IC50 cell-based assay, adherent cells, MDA-MB-231; details: Homo sapiens, Breast, triple neg, 72 hours, read-out: IC50 of Compounds in Adherent Cell Types
Summary of the method: as §1

SK-MEL-28 = experiment: IC50 cell-based assay, adherent cells, SK-MEL-28; details: Homo sapiens, Melanoma, 72 hours, read-out: IC50 of Compounds in Adherent Cell Types
Summary of the method: as §1

[2] = tested on: triple negative breast cancer cell line MDA-MB-468; experiment: IC50 cell-based assay, adherent cells, MDA-MB-468; details: Homo sapiens

O=C(Nc1cc(C(F)(F)F)cc(C(F)(F)F)c1)c1cc(-c2ccc(Cl)cc2)oc1C(F)(F)F [Compound 2, 5-(4-Chlorophenyl)-N-(3,5-bistrifluoromethylphenyl)-2-trifluoromethylfuran-3-carboxamide]
IC50 (Hep-G2): 5 to 10 µM
IC50 (Nalm-6): < 5 µM
IC50 (MCF-7): 5 to 10 µM
IC50 (RT-4): > 20 µM
IC50 (HL-60): < 5 µM
Percent Weight Change of Control and Treated Animals, mean ([1]; Day 1): 0.00%
Percent Weight Change of Control and Treated Animals, mean ([1]; Day 2): −1.11%
Percent Weight Change of Control and Treated Animals, mean ([1]; Day 3): −2.65%
Percent Weight Change of Control and Treated Animals, mean ([1]; Day 4): −3.35%
Percent Weight Change of Control and Treated Animals, mean ([1]; Day 5): −3.84%
Percent Weight Change of Control and Treated Animals, mean ([1]; Day 6): −1.98%
Percent Weight Change of Control and Treated Animals, mean ([1]; Day 7): −3.25%
Percent Weight Change of Control and Treated Animals, mean ([1]; Day 8): −5.29%
Percent Weight Change of Control and Treated Animals, mean ([1]; Day 9): −3.91%
Percent Weight Change of Control and Treated Animals, mean ([1]; Day 10): −6.29%
Percent Weight Change of Control and Treated Animals, mean ([1]; Day 11): −3.98%
Percent Weight Change of Control and Treated Animals, mean ([1]; Day 12): −1.48%
Percent Weight Change of Control and Treated Animals, mean ([1]; Day 13): −1.39%
Percent Weight Change of Control and Treated Animals, mean ([1]; Day 14): −2.75%
Percent Weight Change of Control and Treated Animals, mean ([1]; Day 15): −0.49%
Percent Weight Change of Control and Treated Animals, mean ([1]; Day 16): −1.04%
Percent Weight Change of Control and Treated Animals, mean ([1]; Day 17): −0.16%
Percent Weight Change of Control and Treated Animals, mean ([1]; Day 18): 0.96%
Percent Weight Change of Control and Treated Animals, mean ([1]; Day 19): −0.20%
Percent Weight Change of Control and Treated Animals, mean ([1]; Day 20): −1.98%
Percent Weight Change of Control and Treated Animals, mean ([1]; Day 21): −0.19%
Percent Weight Change of Control and Treated Animals, mean ([1]; Day 22): −0.65%
IC50 (FaDu): < 5 µM
IC50 (HT-29): 5 to 10 µM
IC50 1937: < 5 µM
IC50 (A431): < 5 µM
IC50 (Kg1a): < 5 µM
IC50 (MDA-MB-231): < 5 µM
IC50 (SK-MEL-28): 5 to 10 µM
IC50 ([2]; MDA-MB-468, Breast, triple neg, 72 hours, Table 1, read-out: IC50 of Compounds in Adherent Cell Types): < 5 µM
IC50 ([2]; MDA-MB-468 cells, Table 3, read-out: IC50 of Compounds in MDA-MB-468 Cells): 1.5 µM
